From patent US11236047B2 (ASTEX THERAPEUTICS LIMITED, priority 2017, dated 2022)
Where two headings read alike, the source gives them in different places. One block for each compound: values may come before it.

Columns and labels:
[1] = test system: SJSA-1 cells (p53 wild-type, MDM2 amplified osteosarcoma); experiment: Protocol A: SJSA-1 growth inhibition (sulphorhodamine B)
MDM2-p53 interaction = MDM2-p53 interaction (Homo sapiens (Human), UniProt Q00987)
Molm-13 AML cell line [2] = experiment: Combination protocol for measuring apoptosis (cleaved caspase-3), Molm-13; format: cell-based; conditions: SGI-110 10 nM daily for three days, isoindolinone 20 nM added on third day, 24 hrs, alone or combined, vehicle control 8.72
Protocol: (§1) Combination Protocol for Measuring Apoptosis
(§2) SGI-110 was added daily for three days. […] Percentage apoptosis was measured as percentage fluorescent cells with cleaved caspase-3 in a Guava easyCyte HT cytometer (Millipore). Cleaved caspase-3 staining was recorded in the FL1 channel, with unstained and DMSO control wells being used to set the gated stained and unstained cell populations.
(§3) Table 1 summarises the % apoptosis seen in Molm-13, MV-4-11, or ML-2 with the indicated compound treatments.

MV-4-11 AML cell line [3] = experiment: Combination protocol for measuring apoptosis (cleaved caspase-3), MV-4-11; format: cell-based; conditions: SGI-110 10 nM daily for three days, isoindolinone 20 nM added on third day, 24 hrs, alone or combined, vehicle control 13.69
Protocol: as §1, §2, §3

Molm-13 AML cell line [4] = experiment: Combination protocol for proliferation in dose matrix (Alamar blue), Molm-13; format: cell-based
Protocol: (§4) Combination Protocol for Proliferation in Dose Matrix
(§5) AML cell lines were seeded onto 96-well tissue culture plates in triplicates at a concentration of 1×10^4 cells/well. […] At the end of compound treatment, 20 μl Alamar blue was added. After further 5-6 hr incubation at 37° C. the plates were read on a Spectramax Gemini reader (Molecular Devices; excitation 535 nm, emission 590 nm).

ML-2 AML cell line [5] = experiment: Combination protocol for measuring apoptosis (cleaved caspase-3), ML-2; format: cell-based; conditions: SGI-110 10 nM daily for three days, isoindolinone 100 nM added on third day, 24 hrs, alone or combined, vehicle control 3.32
Protocol: as §1, §2, §3

ML-2 AML cell line [6] = experiment: Combination protocol for proliferation in dose matrix (Alamar blue), ML-2; format: cell-based
Protocol: as §4, §5

MV-4-11 AML cell line [7] = experiment: Combination protocol for proliferation in dose matrix (Alamar blue), MV-4-11; format: cell-based
Protocol: as §4, §5

[8] = test system: SN40R2 cells (p53 mutated, MDM2 amplified osteosarcoma); experiment: Protocol A: SN40R2 growth inhibition (sulphorhodamine B); conditions: read-out: SN40R2 IC50 (μM) (Protocol A)
SJSA-1 cells = experiment: Protocol B: SJSA-1 CellTiter-Glo luminescent cell viability assay; conditions: Homo sapiens, SJSA-1, read-out: SJSA1 IC50 (μM) (Protocol B), SJSA-1, Protocol B
[9] = read-out: SJSA-1 IC50 (μM) (Protocol A), SJSA-1, Protocol A
[10] = SGI-110 0 μM + isoindolinone 0.001 μM
[11] = SGI-110 0 μM + isoindolinone 0.003 μM
[12] = SGI-110 0 μM + isoindolinone 0.01 μM
[13] = SGI-110 0 μM + isoindolinone 0.03 μM
[14] = SGI-110 0 μM + isoindolinone 0.1 μM
[15] = SGI-110 0 μM + isoindolinone 0.3 μM
[16] = SGI-110 0 μM + isoindolinone 1 μM
[17] = SGI-110 0 μM + isoindolinone 3 μM
[18] = SGI-110 0 μM + isoindolinone 10 μM
[19] = Homo sapiens, SJSA-1, read-out: SJSA-1 IC50 (μM) (Protocol A), SJSA-1, Protocol A

MDM2-p53 interaction, sequence (Q00987 whole entry): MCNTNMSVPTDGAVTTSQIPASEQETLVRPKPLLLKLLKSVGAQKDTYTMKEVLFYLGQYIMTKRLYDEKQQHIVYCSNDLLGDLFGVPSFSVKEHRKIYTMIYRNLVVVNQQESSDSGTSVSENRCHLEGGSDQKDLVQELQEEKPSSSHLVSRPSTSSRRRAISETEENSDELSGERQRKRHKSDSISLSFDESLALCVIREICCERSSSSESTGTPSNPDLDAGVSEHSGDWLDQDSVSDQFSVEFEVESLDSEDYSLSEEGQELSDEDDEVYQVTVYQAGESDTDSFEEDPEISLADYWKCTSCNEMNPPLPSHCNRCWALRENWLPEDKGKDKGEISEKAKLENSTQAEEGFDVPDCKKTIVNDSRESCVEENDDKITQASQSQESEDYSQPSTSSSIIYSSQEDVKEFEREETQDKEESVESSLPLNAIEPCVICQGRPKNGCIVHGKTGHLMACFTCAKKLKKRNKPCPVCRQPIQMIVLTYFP

IC50 [1, 9]: 3 µM
MDM2 % at stated concentration (MDM2-p53 interaction; at 0.30 μM): 61%@0.30
SMILES: CO[C@]1(c2ccc(Cl)cc2)c2ccc(C(C)(O)CN3CC(=O)NC3=O)cc2C(=O)N1Cc1ccc(Cl)cn1 (single isomer, unassigned) [Example 329]

SMILES: CC[C@@](O)(c1cc(F)c2c(c1)C(=O)N([C@H](c1ccc(Cl)cc1)[C@H](C)C(=O)O)[C@@]2(OC)c1ccc(Cl)cc1)C1CCOCC1 [(2S,3S)-3-(4-chlorophenyl)-3-[(1R)-1-(4-chlorophenyl)-7-fluoro-5-[(1S)-1-hydroxy-1-(oxan-4-yl)propyl]-1-methoxy-3-oxo-2,3-dihydro-1H-isoindol-2-yl]-2-methylpropanoic Acid]
% Apoptosis (Molm-13 AML cell line [2]): 32.48%
% Apoptosis (MV-4-11 AML cell line [3]): 30.83%
Percentage viability relative to DMSO control (Molm-13 AML cell line [4]; [10]): 98%
Percentage viability relative to DMSO control (Molm-13 AML cell line [4]; [11]): 99%
Percentage viability relative to DMSO control (Molm-13 AML cell line [4]; [12]): 84%
Percentage viability relative to DMSO control (Molm-13 AML cell line [4]; [13]): 52%
Percentage viability relative to DMSO control (Molm-13 AML cell line [4]; [14]): 37%
Percentage viability relative to DMSO control (Molm-13 AML cell line [4]; [15]): 27%
Percentage viability relative to DMSO control (Molm-13 AML cell line [4]; [16]): 24%
Percentage viability relative to DMSO control (Molm-13 AML cell line [4]; [17]): 22%
Percentage viability relative to DMSO control (Molm-13 AML cell line [4]; [18]): 15%
% Apoptosis (ML-2 AML cell line [5]): 15.15%
Percentage viability relative to DMSO control (ML-2 AML cell line [6]; [10]): 100%
Percentage viability relative to DMSO control (ML-2 AML cell line [6]; [11]): 94%
Percentage viability relative to DMSO control (ML-2 AML cell line [6]; [12]): 78%
Percentage viability relative to DMSO control (ML-2 AML cell line [6]; [13]): 59%
Percentage viability relative to DMSO control (ML-2 AML cell line [6]; [14]): 47%
Percentage viability relative to DMSO control (ML-2 AML cell line [6]; [15]): 30%
Percentage viability relative to DMSO control (ML-2 AML cell line [6]; [16]): 16%
Percentage viability relative to DMSO control (ML-2 AML cell line [6]; [17]): 15%
Percentage viability relative to DMSO control (ML-2 AML cell line [6]; [18]): 9%
Percentage viability relative to DMSO control (MV-4-11 AML cell line [7]; [10]): 92%
Percentage viability relative to DMSO control (MV-4-11 AML cell line [7]; [11]): 82%
Percentage viability relative to DMSO control (MV-4-11 AML cell line [7]; [12]): 70%
Percentage viability relative to DMSO control (MV-4-11 AML cell line [7]; [13]): 54%
Percentage viability relative to DMSO control (MV-4-11 AML cell line [7]; [14]): 29%
Percentage viability relative to DMSO control (MV-4-11 AML cell line [7]; [15]): 16%
Percentage viability relative to DMSO control (MV-4-11 AML cell line [7]; [16]): 13%
Percentage viability relative to DMSO control (MV-4-11 AML cell line [7]; [17]): 13%
Percentage viability relative to DMSO control (MV-4-11 AML cell line [7]; [18]): 12%

IC50 [8]: 32 µM
IC50 [1, 19]: 0.11 µM
IC50 (SJSA-1 cells): 0.16 µM
MDM2 % at stated concentration (MDM2-p53 interaction): 62%@0.0010
SMILES: CO[C@]1(c2ccc(Cl)cc2)c2c(F)cc(C(C)(O)C3CCN(C(=O)CO)CC3)cc2C(=O)N1Cc1ccc(Cl)cn1 (single isomer, unassigned) [Example 296]

IC50 [1, 9]: 9.3 µM
MDM2 % at stated concentration (MDM2-p53 interaction; at 0.30 μM): 42%@0.30
SMILES: CO[C@]1(c2ccc(Cl)cc2)c2ccc(C(C)(O)CN3CCOCC3=O)cc2C(=O)N1Cc1ccc(Cl)cn1 (single isomer, unassigned) [Example 327]

IC50 [1, 9]: 1.2 µM
MDM2 % at stated concentration (MDM2-p53 interaction; at 0.10 μM): 57%@0.10
SMILES: CO[C@]1(c2ccc(Cl)cc2)c2ccc(C(C)(O)CN3CCNC3=O)cc2C(=O)N1Cc1ccc(Cl)cn1 (single isomer, unassigned) [Example 158]

IC50 [1, 9]: 6.4 µM
MDM2 % at stated concentration (MDM2-p53 interaction; at 0.30 μM): 39%@0.30
SMILES: CO[C@]1(c2ccc(Cl)cc2)c2ccc(C(C)(O)CN3CCNC3=O)cc2C(=O)N1Cc1ccc(Cl)cn1 (single isomer, unassigned) [Example 157]

SMILES: CC(O)(c1cc(F)c2c(c1)C(=O)N(Cc1ccc(Cl)cn1)[C@@]2(OCC1(C#N)CC1)c1ccc(Cl)cc1)C1CCN(CCO)CC1 (single isomer, unassigned) [Example 420]
IC50 [8]: 17 µM
IC50 [1, 19]: 0.49 µM
MDM2 % at stated concentration (MDM2-p53 interaction): 68%@0.0010
